Test results: patent US20090314217A1, “APPARATUS AND METHOD FOR TREATING NON-HUMAN MAMMALS” (Under The Boardwalk Properties 8 (Proprietary) Limited, priority 2006, published 2009)

Assay: Blood tests on the horses on the days of the race (Table 1)
Format: in vivo, horse
Protocol: The apparatus 10 was used in a confidential trial to treat five horses taking part in an endurance race. The five horses were called Moniq, Shamon, Pauli, Viola and Ophelia. During treatment, the average temperature inside the enclosure 22 was between 42° C. and 45° C. and an oxygen flow rate of 1 l/min was supplied to the ozonator 52. During treatment, the average heart-rate for the non-accustomed horses was 42 beats per minute. The superficial skin temperature measured on the neck and the point of the shoulder of the horses was 39° C. in each case.
Table 1 provides information on the blood tests conducted on the five horses, on the days of the race as indicated.

[1] = horse Pauli, race day 2, pre-treated before race
[2] = horse Shamon, race day 3, treated day 2
[3] = horse Viola, race day 2, treated days 1 and 2, day 1 value 40

For `O=[O+][O-]` [ozone], the “GLOB = globulin” value [1] was 47 gram/liter, the “GLU = glucose” value [1] was “*6.9 mmol/liter” and the “GR % = granulocytes percentage” value [1] was 88.0%. The “GRA = granulocytes” value [1] was 1.76e+10 L⁻¹, the “HB = hemoglobin” value [1] was 16.6 d/deciliter and the “K+ = potassium” value [1] was 5.1 mmol/L. For the same compound, the “LY % = lymphocytes percentage” value [1] was 7.0%, the “LYM = lymphocytes” value [1] was 1.39e+09 L⁻¹ and the “MCH = mean corpuscular hemoglobin” value [1] was 15.8 pg. For the same compound, the “MCHC = mean corpuscular hemoglobin concentration” value [1] was 38.8 gram/deciliter, the “MCV = mean corpuscular volume” value [1] was 41 femtoliter and the “MON % = monocytes percentage” value [1] was 4.0%. For the same compound, the “MON = monocytes” value [1] was 8e+08 L⁻¹, the “Na+ = sodium” value [1] was 143 mmol/L and the PCT [1] was 0.05%. For the same compound, the PDW [1] was 33.8, the “PLT = platelets” value [1] was 1.1e+11 L⁻¹ and the “RBC = red blood cell count” value [1] was 1.05e+13 L⁻¹. The RDWc [1] was 21.9%, the “TBIL = total biliruben” value [1] was 96 µmol/L and the “TP = total protein” value [1] was 79 gram/liter. For the same compound, the “WBC = white blood cell count” value [1] was 1.98e+10 L⁻¹, the “ALB = albumin” value [2] was 31 gram/liter and the “AST = aspertate amino transferase” value [2] was 722 Units/liter. For the same compound, the “BUN = blood urea nitrogen” value [2] was 9 mmol/L, the “CA++ = calcium” value [2] was 2.76 mmol/L and the “CK = creatine kinase” value [2] was 1450 International Units/liter. The “CRE = creatinine” value [2] was 122 µmol/L, the “GGT = gamma glutamiel transferase” value [2] was 27 Units/liter and the “GLOB = globulin” value [2] was 35 gram/liter. For the same compound, the “GLU = glucose” value [2] was 6.3 mmol/L, the “GR % = granulocytes percentage” value [2] was 78.4% and the “GRA = granulocytes” value [2] was 1.24e+10 L⁻¹. For the same compound, the “HB = hemoglobin” value [2] was 11.9 d/deciliter, the “K+ = potassium” value [2] was 3.8 mmol/L and the “LY % = lymphocytes percentage” value [2] was 16.4%. The “LYM = lymphocytes” value [2] was 2.59e+09 L⁻¹, the “MCH = mean corpuscular hemoglobin” value [2] was 15.8 pg and the “MCHC = mean corpuscular hemoglobin concentration” value [2] was 39.3 gram/deciliter. The “MCV = mean corpuscular volume” value [2] was 40 femtoliter, the “MON % = monocytes percentage” value [2] was 5.2% and the “MON = monocytes” value [2] was 8.2e+08 L⁻¹. For the same compound, the “Na+ = sodium” value [2] was 138 mmol/L, the PCT [2] was 0.06% and the PDW [2] was 35.8. The “PLT = platelets” value [2] was 1.02e+11 L⁻¹, the “RBC = red blood cell count” value [2] was 7.56e+12 L⁻¹ and the RDWc [2] was 22.1%. The “TBIL = total biliruben” value [2] was 52 µmol/L, the “TP = total protein” value [2] was 66 gram/liter and the “WBC = white blood cell count” value [2] was 1.58e+10 L⁻¹. The PCT (horse Viola, race day 2, treated days 1 and 2, day 1 value 0.09) was 0.05%, the “MON = monocytes” value (horse Viola, race day 2, treated days 1 and 2, day 1 value 0.64) was 5.6e+08 L⁻¹ and the “LYM = lymphocytes” value (horse Viola, race day 2, treated days 1 and 2, day 1 value 1.34) was 2.14e+09 L⁻¹. For the same compound, the “GLU = glucose” value (horse Viola, race day 2, treated days 1 and 2, day 1 value 2.9) was 5.7 mmol/L, the “CA++ = calcium” value (horse Viola, race day 2, treated days 1 and 2, day 1 value 2.97) was 2.88 mmol/L and the “MON % = monocytes percentage” value (horse Viola, race day 2, treated days 1 and 2, day 1 value 4.3) was 4.3%. The “K+ = potassium” value (horse Viola, race day 2, treated days 1 and 2, day 1 value 5.1) was 3.7 mmol/L, the “LY % = lymphocytes percentage” value (horse Viola, race day 2, treated days 1 and 2, day 1 value 8.9) was 16.3% and the “BUN = blood urea nitrogen” value (horse Viola, race day 2, treated days 1 and 2, day 1 value 9) was 9 mmol/L. The “RBC = red blood cell count” value (horse Viola, race day 2, treated days 1 and 2, day 1 value 9.73) was 9.03e+12 L⁻¹, the “GRA = granulocytes” value (horse Viola, race day 2, treated days 1 and 2, day 1 value 13.0) was 1.04e+10 L⁻¹ and the “WBC = white blood cell count” value (horse Viola, race day 2, treated days 1 and 2, day 1 value 15.0) was 1.31e+10 L⁻¹. The “HB = hemoglobin” value (horse Viola, race day 2, treated days 1 and 2, day 1 value 15.2) was 14.4 d/deciliter, the “MCH = mean corpuscular hemoglobin” value (horse Viola, race day 2, treated days 1 and 2, day 1 value 15.7) was 16.0 pg and the “GGT = gamma glutamiel transferase” value (horse Viola, race day 2, treated days 1 and 2, day 1 value 17) was 18 Units/liter. For the same compound, the RDWc (horse Viola, race day 2, treated days 1 and 2, day 1 value 22.4) was 22.6%, the “ALB = albumin” value (horse Viola, race day 2, treated days 1 and 2, day 1 value 34) was 30 gram/liter and the PDW (horse Viola, race day 2, treated days 1 and 2, day 1 value 35.8) was 31.0. For the same compound, the “MCHC = mean corpuscular hemoglobin concentration” value (horse Viola, race day 2, treated days 1 and 2, day 1 value 39.4) was 39.0 gram/deciliter, the “GLOB = globulin” value [3] was 39 gram/liter and the “MCV = mean corpuscular volume” value [3] was 41 femtoliter. The “TBIL = total biliruben” value (horse Viola, race day 2, treated days 1 and 2, day 1 value 41) was 48 µmol/L, the “TP = total protein” value (horse Viola, race day 2, treated days 1 and 2, day 1 value 75) was 69 gram/liter and the “GR % = granulocytes percentage” value (horse Viola, race day 2, treated days 1 and 2, day 1 value 86.8) was 79.4%. The “CRE = creatinine” value (horse Viola, race day 2, treated days 1 and 2, day 1 value 131) was 99 µmol/L, the “Na+ = sodium” value (horse Viola, race day 2, treated days 1 and 2, day 1 value 144) was 138 mmol/L and the “PLT = platelets” value (horse Viola, race day 2, treated days 1 and 2, day 1 value 146) was 9.9e+10 L⁻¹. For the same compound, the “CK = creatine kinase” value (horse Viola, race day 2, treated days 1 and 2, day 1 value 5896) was 1599 International Units/liter and the “AST = aspertate amino transferase” value (horse Viola, race day 2, treated days 1 and 2, day 1 value >2000) was 1814 Units/liter.
